Source: US9493480B2, “Monomeric trioxane amide sulfur compounds” (THE JOHNS HOPKINS UNIVERSITY, priority 2011, dated 2016)
“Also recorded” adds a separate entry of the source. Values belong to the compound of their own block, whether it stands above or below them.

What was measured:
[1] = test system: Plasmodium berghei, ANKA malaria strain; test: In vivo antimalarial efficacy, single oral dose of trioxane combined with mefloquine hydrochloride in P. berghei infected mice; settings: for mouse survival in words: single oral dose 100 mg/kg; for cure outcome (survival to day 30 with no detectable parasites = complete cure): single oral dose of trioxane (6 mg/kg) combined with mefloquine hydrochloride (18 mg/kg); for parasitemia on day 30 after infection in surviving mice: value of one mouse where so stated
Description: […] Rosenthal, A. S., et al., Malaria-infected Mice are Cured by a Single Oral Dose of New Dimeric Trioxane Sulfones Which are Also Selectively and Powerfully Cytotoxic to Cancer Cells. J. Med. Chem. 2009, 52, 1198-1203. Each of four mice in a group was treated orally 24 hours post infection with a single dose of 0.20 mL [(0.20 mL/1.07 mL)×0.64 mg=0.12 mg] of diluted trioxane solution, […] Alternatively, a single dose of 7.5 mg/kg of trioxane plus 15.0 mg/kg of mefloquine hydrochloride was used. The malariometrics used involved determining blood parasitemia levels, as well as monitoring the duration of animal survival compared to survival time of infected animals receiving no drug.
The average survival time of the malaria-infected animals receiving no drug was 6.8 days post infection. All of the infected mice in this study receiving the trioxane drug artemether (2b) plus mefloquine died on the average on day 18.8 post infection (Table 1, controls). Additionally, a single oral dose of artemether (6 mg/kg) plus lumefantrine (18 mg/kg) was not curative (see Table 1), with the mice dying an average of 12.5 days after infection. […]
(§1) A widely accepted indication of complete cure (i.e., 100% efficacy) is survival of animals to day 30 post infection with no detectable malaria parasites in the animals' blood at that time. It is important to note that the combination of the standard trioxane drug artemether (2b), with either mefloquine hydrochloride or lumefantrine, was not curative (Table 1, controls). […] While 3-fluoroanilide 12b was not curative, administration of 3-methylthioether 3-arteSanilide 12d at a dose of 7.5 mg/kg plus 15 mg/kg mefloquine hydrochloride achieved mouse survival through day 30 after infection; however, all four of the surviving mice appeared sick and had considerable parasitemia levels (25-50%). […] In addition, 3-arteSanilide 12d is more efficacious than 4-arteSanilide 12c. […] Replacing the sulfur atom in 12d with an oxygen atom afforded methyl ether 12p, which prolonged survival time to only 21.8 days after infection. This observation indicates the critical nature of the sulfur atom. In addition, the lipophilicity of 3-arteSanilide 12d was increased by lengthening the alkyl sulfide chain from methyl to n-propyl. 3-n-Propyl sulfide 12l, however, is much less efficacious than the curative methyl sulfide 3-arteSanilide 12d.

[2] = test system: P. falciparum (NF54) Parasites; test: In vitro antimalarial potencies of trioxanes against P. falciparum (NF54) parasites; format: cell-based; settings: Plasmodium falciparum, M ± SD of at least four determinations
Description: Biology: In Vitro Potencies. Prompted by the unexpected in vivo efficacy of 3-arteSanilide 12d, the in vitro the intrinsic antimalarial activity, free of host-mediated factors, was assayed of compounds that differ in the oxidative state of the sulfur atom (Table 2).

[3] = Stability of the neat compound at 60° C.; format: physicochemical; settings: absence of solvent
Excerpt: Hydroboration-oxidation followed by oxidation of the resulting primary alcohol produced C-10 carboxylic acid 11. Posner, G. H., et al., Orally Active, Antimalarial, Anticancer, Artemisinin-derived Trioxane Dimers with High Stability and Efficacy. J. Med. Chem. 2003, 46, 1060-1065. Condensation of carboxylic acid 11 with various anilines yielded a library of C-10 monomeric trioxane anilides 12b-h, 12l, 12o-q (FIG. 2). Scale up synthesis is expected to be straightforward. Without wishing to be bound to any one particular theory, because these anilides 12b-q are C-10 non-acetal derivatives, they are more hydrolytic ally stable than the C-10 acetal first generation artemisinin derivatives, such as artemether (2b) or artesunate (2c). In the absence of solvent, neat 3-arteSanilide 12d, for example, is stable for at least 7 days at 60° C.

[4] = Overt toxicity, behavior and weight gain of treated malaria-infected mice; format: in vivo; settings: for toxicity of single oral dose: single oral dose 100 mg/kg, no mefloquine
Description: as §1

[5] = test system: P388 leukemia; settings: NCI Report on NSC 369397, tested on 25 Oct. 1983; cited from earlier work
[6] = single oral dose 24 h post infection: trioxane 6 mg/kg + mefloquine hydrochloride 18 mg/kg, C57BL/6J male mice, 4 per group
[7] = single oral dose: trioxane 6 mg/kg + mefloquine hydrochloride 18 mg/kg
[8] = Plasmodium berghei, 72 h, single oral dose: trioxane 100 mg/kg, no mefloquine, read-out: % suppression of parasitemia (on day 3 after infection)
[9] = single oral dose: trioxane 7.5 mg/kg + mefloquine hydrochloride 15 mg/kg
[10] = single oral dose: trioxane 7.5 mg/kg + mefloquine hydrochloride 15 mg/kg, mice, 4 per group
[11] = single oral dose: trioxane 100 mg/kg, no mefloquine
[12] = mefloquine hydrochloride alone, single oral dose 15 mg/kg
[13] = mefloquine hydrochloride alone, single oral dose 18 mg/kg
[14] = single oral dose: artemether 6 mg/kg + lumefantrine 18 mg/kg

SMILES: COc1cccc(NC(=O)CC[C@H]2O[C@@H]3O[C@]4(C)CC[C@H]5[C@H](C)CC[C@@H]([C@H]2C)[C@@]35OO4)c1 [12p]
- average survival (days) after infection [1, 6]: 21.8 days
- % suppression of parasitemia (on day 3 after infection) [1, 7]: >99.9%

SMILES: CSc1cccc(NC(=O)CC[C@H]2O[C@@H]3O[C@@]4(C)CC[C@H]5[C@H](C)CC[C@@H]([C@H]2C)[C@@]35OO4)c1 [12d, 3-arteSanilide]
- EC50 [2]: 9.1 ± 0.57 nM
- inhibition in vivo at 100 mg/kg [1, 8]: 97.2%
- parasitemia in uninfected mice inoculated with blood from the cured mice ([1]; donors: 6 mg/kg trioxane + 18 mg/kg mefloquine, read after 30 days): no parasitemia was detected
- mouse survival in words ([1]; no mefloquine): prolonged mouse survival
- average survival (days) after infection [1, 6]: 30 days
- cure outcome (survival to day 30 with no detectable parasites = complete cure) [1]: complete cure; also recorded: cures malaria-infected mice
- % suppression of parasitemia (on day 3 after infection) [1, 7]: >99.9%
- parasitemia on day 30 after infection in surviving mice [1, 7]: ^bNo parasitemia detected on day 30 after infection.
- % suppression of parasitemia (on day 3 after infection) [1, 9]: >99.9%
- average survival (days) after infection [1, 10]: 30 days
- average survival (days) after infection [1, 11]: 15.0 days
- time stable, neat [3]: at least 7 days
- weight gain by day 30 after infection ([4]; 6 mg/kg trioxane + 18 mg/kg mefloquine, compared with uninfected control mice): gained as much weight by day 30 after infection (data not shown) as the uninfected control mice; also recorded: gain as much weight as the control mice
- overt toxicity or behavioral change attributable to trioxane administration ([4]; malaria-infected mice cured by trioxane combined with mefloquine hydrochloride): neither overt toxicity nor behavioral change
- toxicity of single oral dose [4]: nontoxic

SMILES: CSc1ccc(NC(=O)CC[C@H]2O[C@@H]3O[C@@]4(C)CC[C@H]5[C@H](C)CC[C@@H]([C@H]2C)[C@@]35OO4)cc1 [12c, 4-arteSanilide]
- % suppression of parasitemia (on day 3 after infection) [1, 9]: >99.9%
- average survival (days) after infection [1, 10]: 16.3 days

SMILES: CCCS(=O)(=O)c1cccc(NC(=O)CC[C@H]2O[C@@H]3O[C@]4(C)CC[C@H]5[C@H](C)CC[C@@H]([C@H]2C)[C@@]35OO4)c1 [12m]
- average survival (days) after infection [1, 6]: 11.0 days
- % suppression of parasitemia (on day 3 after infection) [1, 7]: >99.9%

SMILES: C[C@H]1[C@@H](CCC(=O)Nc2ccccc2S(C)(=O)=O)O[C@@H]2O[C@]3(C)CC[C@H]4[C@H](C)CC[C@@H]1[C@@]24OO3 [12k]
- % suppression of parasitemia (on day 3 after infection) [1, 9]: >99.9%
- average survival (days) after infection [1, 10]: 22.8 days

- EC50 [2]: 10 ± 1.1 nM
SMILES: C[C@@H]1CC[C@H]2[C@@H](C)C(=O)O[C@@H]3O[C@@]4(C)CC[C@@H]1[C@]32OO4 [Artemisinin (1), artemisinin, reference compound]
- activity against P388 leukemia [5]: inactive

SMILES: Cl.OC(c1cc(C(F)(F)F)nc2c(C(F)(F)F)cccc12)C1CCCCN1 (stereo not shown) [mefloquine, mefloquine hydrochloride, reference compound]
- % suppression of parasitemia (on day 3 after infection) [1, 12]: >99.9%
- average survival (days) after infection [1, 12]: 15.5 days
- % suppression of parasitemia (on day 3 after infection) [1, 13]: >99.9%
- average survival (days) after infection [1, 13]: 19.8 days

SMILES: CSc1cc(NC(=O)CC[C@H]2O[C@@H]3O[C@@]4(C)CC[C@H]5[C@H](C)CC[C@@H]([C@H]2C)[C@@]35OO4)cc(SC)c1 [12f, 3,5-arteSSanilide]
- EC50 [2]: 6.5 ± 0.28 nM
- inhibition in vivo at 100 mg/kg [1, 8]: 97.9%
- mouse survival in words ([1]; no mefloquine): essentially no increase in mouse longevity
- average survival (days) after infection [1, 6]: 30 days
- cure outcome (survival to day 30 with no detectable parasites = complete cure) [1]: partially curative
- % suppression of parasitemia (on day 3 after infection) [1, 7]: >99.9%
- parasitemia on day 30 after infection in surviving mice [1, 7]: 5% and ^dThree mice were parasite-free on day 30, but one mouse had 5% parasitemia on day 30 after infection.
- average survival (days) after infection [1, 11]: 7.5 days
- toxicity of single oral dose [4]: nontoxic

SMILES: CO[C@H]1O[C@@H]2O[C@@]3(C)CC[C@H]4[C@H](C)CC[C@@H]([C@H]1C)[C@@]24OO3 [artemether (2b), artemether, reference compound]
- average survival (days) after infection [1, 6]: 18.8 days
- % suppression of parasitemia (on day 3 after infection) [1, 14]: >99.9%
- average survival (days) after infection [1, 14]: 12.5 days
- % suppression of parasitemia (on day 3 after infection) [1, 7]: >99.9%
- % suppression of parasitemia (on day 3 after infection) [1, 9]: >99.9%
- average survival (days) after infection [1, 10]: 19.8 days

SMILES: C[C@H]1[C@@H](CCC(=O)Nc2cccc([S+](C)[O-])c2)O[C@@H]2O[C@@]3(C)CC[C@H]4[C@H](C)CC[C@@H]1[C@@]24OO3 (stereo partly shown) [12g]
- EC50 [2]: 23 ± 1.3 nM
- average survival (days) after infection [1, 6]: 23.0 days
- cure outcome (survival to day 30 with no detectable parasites = complete cure) [1]: does not
- % suppression of parasitemia (on day 3 after infection) [1, 7]: >99.9%

SMILES: C[C@H]1[C@@H](CCC(=O)Nc2cccc([S+](C)[O-])c2)O[C@@H]2O[C@]3(C)CC[C@H]4[C@H](C)CC[C@@H]1[C@@]24OO3 (stereo partly shown) [12h]
- EC50 [2]: 29 ± 0.43 nM
- average survival (days) after infection [1, 6]: 30 days
- cure outcome (survival to day 30 with no detectable parasites = complete cure) [1]: partially curative
- % suppression of parasitemia (on day 3 after infection) [1, 7]: >99.9%
- parasitemia on day 30 after infection in surviving mice [1, 7]: ^eOne mouse had 1.8% parasitemia on day 30 after infection.

SMILES: CCCSc1cccc(NC(=O)CC[C@H]2O[C@@H]3O[C@]4(C)CC[C@H]5[C@H](C)CC[C@@H]([C@H]2C)[C@@]35OO4)c1 [12l]
- average survival (days) after infection [1, 6]: 23.0 days
- % suppression of parasitemia (on day 3 after infection) [1, 7]: >99.9%

SMILES: CSc1ccccc1NC(=O)CC[C@H]1O[C@@H]2O[C@@]3(C)CC[C@H]4[C@H](C)CC[C@@H]([C@H]1C)[C@@]24OO3 [12e, 2-arteSanilide]
- average survival (days) after infection [1, 6]: 27.0 days
- % suppression of parasitemia (on day 3 after infection) [1, 7]: >99.9%

SMILES: C[C@H]1[C@@H](CCC(=O)Nc2ccc(S(C)(=O)=O)cc2Cl)O[C@@H]2O[C@]3(C)CC[C@H]4[C@H](C)CC[C@@H]1[C@@]24OO3 [12o]
- % suppression of parasitemia (on day 3 after infection) [1, 9]: >99.9%
- average survival (days) after infection [1, 10]: 24.5 days

SMILES: CCCS(=O)(=O)c1ccccc1NC(=O)CC[C@H]1O[C@@H]2O[C@]3(C)CC[C@H]4[C@H](C)CC[C@@H]([C@H]1C)[C@@]24OO3 [12n]
- average survival (days) after infection [1, 6]: 21.8 days
- % suppression of parasitemia (on day 3 after infection) [1, 7]: >99.9%

SMILES: C[C@H]1[C@@H](CCC(=O)Nc2cccc(S(C)(=O)=O)c2)O[C@@H]2O[C@@]3(C)CC[C@H]4[C@H](C)CC[C@@H]1[C@@]24OO3 [12j]
- EC50 [2]: 21 ± 1.1 nM
- % suppression of parasitemia (on day 3 after infection) [1, 9]: 99.9%
- average survival (days) after infection [1, 10]: 15.5 days

SMILES: CCCCN(CCCC)CC(O)c1cc(Cl)cc2c1-c1ccc(Cl)cc1/C2=C/c1ccc(Cl)cc1 (stereo not shown) [lumefantrine, reference compound]
- inhibition in vivo at 18 mg/kg ([1]; Plasmodium berghei, po, 72 h, read-out: % suppression of parasitemia (on day 3 after infection)): > 99.9%
- average survival (days) after infection ([1]; lumefantrine alone, single oral dose 18 mg/kg): 21.5 days

SMILES: CCCCCCOc1ccc(NC(=O)CC[C@H]2O[C@@H]3O[C@]4(C)CC[C@H]5[C@H](C)CC[C@@H]([C@H]2C)[C@@]35OO4)cc1 [12q]
- % suppression of parasitemia (on day 3 after infection) [1, 9]: >99.9%
- average survival (days) after infection [1, 10]: 15.0 days

SMILES: C[C@H]1[C@@H](CCC(=O)Nc2ccc(S(C)(=O)=O)cc2)O[C@@H]2O[C@]3(C)CC[C@H]4[C@H](C)CC[C@@H]1[C@@]24OO3 [12i]
- % suppression of parasitemia (on day 3 after infection) [1, 9]: >99.9%
- average survival (days) after infection [1, 10]: 22.5 days
